Laboratory results: ChEMBL document CHEMBL5260829, “Recent advances in the discovery of small molecule c-Met Kinase inhibitors” (Eur J Med Chem, 2018)
Blank lines part the entries; values can stand above or below the molecule they belong to.

Legend:
[1] = Half life in mouse at 10 mg/kg, po; type: ADME, organism-based; conditions: in vivo
[2] = AUC in mouse at 10 mg/kg, po; type: ADME, organism-based; parameters: dose 10 mg/kg, route po; conditions: in vivo
NIH3T3 [3] = experiment: cells; conditions: Mus musculus, NIH3T3, 72 h
[4] = Cmax in mouse at 10 mg/kg, po; type: ADME, organism-based; parameters: dose 10 mg/kg, route po; conditions: in vivo
BaF3 [5] = experiment: cells; conditions: Mus musculus, BaF3, 72 h
[6] = Oral bioavailability in mouse at 10 mg/kg; type: ADME, organism-based; conditions: in vivo
MKN-45 [7] = experiment: cells; conditions: Homo sapiens, MKN-45, 72 h
NIH3T3 [8] = experiment: In vivo antitumor activity against mouse NIH3T3 cells expressing […] protein xenografted in nude mouse assessed as tumor growth inhibition at 100 mg/kg,po for 11 days; type: functional; conditions: NIH3T3, 264 h, time 11 day, read-out: TGI
SNU-5 = experiment: cells; conditions: Homo sapiens, SNU-5, 72 h
[9] = target: T1, Hepatocyte growth factor receptor (Homo sapiens, UniProt P08581); experiment: Inhibition of c-Met (unknown origin) using poly(Glu-Tyr) at 4:1 ratio as substrate in presence of ATP incubated for 60 mins by ELISA
T1 sequence (P08581 whole entry): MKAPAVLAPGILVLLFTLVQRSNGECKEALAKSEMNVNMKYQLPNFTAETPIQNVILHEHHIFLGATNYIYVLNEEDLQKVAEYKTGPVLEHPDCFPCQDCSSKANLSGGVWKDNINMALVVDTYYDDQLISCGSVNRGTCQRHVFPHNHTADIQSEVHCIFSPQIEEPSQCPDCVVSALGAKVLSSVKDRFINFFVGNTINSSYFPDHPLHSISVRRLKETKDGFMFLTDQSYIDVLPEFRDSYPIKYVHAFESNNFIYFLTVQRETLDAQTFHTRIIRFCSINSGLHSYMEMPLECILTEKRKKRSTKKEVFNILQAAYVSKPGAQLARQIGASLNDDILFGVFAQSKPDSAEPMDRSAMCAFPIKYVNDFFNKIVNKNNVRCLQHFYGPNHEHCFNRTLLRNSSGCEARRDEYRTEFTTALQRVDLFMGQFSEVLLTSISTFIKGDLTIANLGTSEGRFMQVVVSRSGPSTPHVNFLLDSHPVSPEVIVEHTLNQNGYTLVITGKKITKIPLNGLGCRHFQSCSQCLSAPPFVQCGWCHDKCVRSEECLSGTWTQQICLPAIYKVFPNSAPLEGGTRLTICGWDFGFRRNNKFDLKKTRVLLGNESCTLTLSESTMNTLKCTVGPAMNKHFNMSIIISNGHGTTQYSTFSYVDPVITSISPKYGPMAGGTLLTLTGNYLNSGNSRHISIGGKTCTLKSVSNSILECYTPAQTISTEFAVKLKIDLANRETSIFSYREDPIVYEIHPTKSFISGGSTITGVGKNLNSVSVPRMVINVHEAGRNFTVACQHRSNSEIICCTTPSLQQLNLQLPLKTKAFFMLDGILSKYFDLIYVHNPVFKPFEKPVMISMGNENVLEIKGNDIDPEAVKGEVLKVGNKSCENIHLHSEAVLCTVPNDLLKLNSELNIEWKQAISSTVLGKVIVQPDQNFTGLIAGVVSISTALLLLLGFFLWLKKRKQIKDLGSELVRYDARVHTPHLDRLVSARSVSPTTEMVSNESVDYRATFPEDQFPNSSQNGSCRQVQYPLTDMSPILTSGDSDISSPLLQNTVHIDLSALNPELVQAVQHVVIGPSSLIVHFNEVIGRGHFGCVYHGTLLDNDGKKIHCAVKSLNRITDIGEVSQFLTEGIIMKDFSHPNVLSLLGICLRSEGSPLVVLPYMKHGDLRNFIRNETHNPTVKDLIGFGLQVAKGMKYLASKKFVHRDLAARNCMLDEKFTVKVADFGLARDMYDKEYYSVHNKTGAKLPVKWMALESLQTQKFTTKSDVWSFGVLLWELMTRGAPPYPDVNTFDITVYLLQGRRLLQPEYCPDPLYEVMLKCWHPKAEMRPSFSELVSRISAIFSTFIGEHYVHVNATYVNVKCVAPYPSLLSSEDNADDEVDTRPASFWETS

MKN-45 [10] = experiment: cells; conditions: Homo sapiens, MKN-45, 72 h; remark: listed apart in the source
Bel-7402 = experiment: Antiproliferative activity against human Bel-7402 cells assessed as reduction in cell viability incubated for 24 hrs by MTT assay; type: functional, cell-based; conditions: Bel-7402, 24 h
HeLa = experiment: Antiproliferative activity against human HeLa cells assessed as reduction in cell viability incubated for 24 hrs by MTT assay; type: functional, cell-based
A549 [11] = experiment: Antiproliferative activity against human A549 cells assessed as reduction in cell viability incubated for 24 hrs by MTT assay; type: functional, cell-based; conditions: A549, 24 h
HepG2 [12] = experiment: Antiproliferative activity against human HepG2 cells assessed as reduction in cell viability incubated for 24 hrs by MTT assay; type: functional, cell-based; conditions: HepG2, 24 h
[13] = target: T1, Hepatocyte growth factor receptor; experiment: Inhibition of c-Met (unknown origin) kinase activity using biotinylated poly-tyrosine as substrate in presence of ATP incubated for 1 hr by AlphaQuest analysis
MKN-45 [14] = experiment: Antiproliferative activity against human MKN-45 cells assessed as reduction in cell proliferation incubated for 48 hrs; type: functional, cell-based; conditions: MKN-45, 48 h
MKN-45 [15] = experiment: Antiproliferative activity against human MKN-45 cells assessed as reduction in cell proliferation incubated for 48 hrs by sulforhodamine B assay; type: functional, cell-based; conditions: MKN-45, 48 h
A549 [16] = experiment: Antiproliferative activity against human A549 cells assessed as reduction in cell proliferation incubated for 48 hrs by sulforhodamine B assay; type: functional, cell-based; conditions: A549, 48 h
[17] = target: T1, Hepatocyte growth factor receptor; experiment: Inhibition of c-Met (unknown origin) kinase activity using peptide as substrate in presence of 33P-ATP incubated for 20 to 30 mins by scintillation counter analysis
HT-29 [18] = experiment: Antiproliferative activity against human HT-29 cells assessed as reduction in cell proliferation incubated for 48 hrs by sulforhodamine B assay; type: functional, cell-based; conditions: HT-29, 48 h
HUVEC = experiment: cells; conditions: Homo sapiens, 72 h
BaF3 [19] = experiment: cells; conditions: Mus musculus, BaF3, 72 h; remark: listed apart in the source
HepG2 [20] = experiment: Antiproliferative activity against human HepG2 cells assessed as reduction in cell proliferation incubated for 48 hrs by MTT assay; type: functional, cell-based; conditions: HepG2, 48 h
EBC-1 [21] = experiment: cells; conditions: Homo sapiens, EBC-1, 72 h
[22] = target: T1, Hepatocyte growth factor receptor; experiment: Inhibition of c-Met (unknown origin) kinase activity using poly(Glu-Tyr) at 4:1 ratio as substrate in presence of ATP incubated for 30 mins by HTRF assay
MKN-45 [23] = experiment: Antiproliferative activity against human MKN-45 cells assessed as reduction in cell proliferation incubated for 72 hrs by CellTiter-Glo luminescent assay; type: functional, cell-based; conditions: MKN-45, 72 h
EBC-1 [24] = experiment: Antiproliferative activity against human EBC-1 cells assessed as reduction in cell proliferation incubated for 72 hrs by CellTiter-Glo luminescent assay; type: functional, cell-based; conditions: EBC-1, 72 h
[25] = target: T1, Hepatocyte growth factor receptor; experiment: Inhibition of His6-tagged recombinant human c-Met using 5FAM-KKK-SPGEYVNIGFG-NH2 as substrate in presence of ATP incubated for 60 mins by AiphaQuest assay
BaF3 [26] = experiment: Antiproliferative activity against mouse BaF3 cells expressing […] protein assessed as reduction in cell proliferation incubated for 72 hrs by Cell Titer-Glo luminescence assay; type: functional, cell-based; conditions: BaF3, 72 h
[27] = target: T1, Hepatocyte growth factor receptor; experiment: Inhibition of c-Met (unknown origin) kinase activity using peptide as substrate in presence of ATP incubated for 1 hrs by ELISA
HT-29 [28] = experiment: Antiproliferative activity against human HT-29 cells assessed as reduction in cell proliferation incubated for 72 hrs by MTT assay; type: functional, cell-based; conditions: HT-29, 72 h
[29] = target: T1, Hepatocyte growth factor receptor; experiment: Inhibition of c-Met (unknown origin)
Hs746T = experiment: Antiproliferative activity against human Hs746T cells assessed as reduction in cell viability incubated for 72 hrs by WST-8 assay; type: functional, cell-based
[30] = target: T1, Hepatocyte growth factor receptor; experiment: Inhibition of recombinant c-Met (unknown origin) using peptide as substrate in presence of ATP by TR-FRET assay
EBC-1 [31] = experiment: cells; conditions: Homo sapiens, EBC-1, 72 h; remark: listed apart in the source

SMILES: O=C(Nc1ccc(Oc2ccnc3[nH]c(-c4ccsc4)nc23)cc1)c1cccn(-c2ccc(F)cc2)c1=O
half-life [1]: 124 min
AUC [2]: 6280 ng·h/mL
IC50 (NIH3T3 [3]): 1600 nM
Cmax [4]: 2170 ng/mL
IC50 (BaF3 [5]): 590 nM
bioavailability [6]: 28.3%
IC50 (MKN-45 [7]): 4300 nM
inhibition in vivo at 100 mg/kg (NIH3T3 [8]): 30.9%
IC50 (SNU-5): 5.3 µM

SMILES: Cc1ccc(N2NC(=O)/C(=C/c3ccc(-c4cc([N+](=O)[O-])ccc4O)o3)C2=O)cc1C
IC50 [9]: 0.46 µM

SMILES: CC(C)=C1C/C=C(\C)CC/C=C(\C)CC1OC(=O)c1ccc(C)cc1 (stereo not given)
IC50 (Bel-7402): 75.9 µM
IC50 (HeLa): 83.6 µM
IC50 (A549 [11]): 84.9 µM
IC50 (HepG2 [12]): 68.2 µM

SMILES: OC1CCC(n2cc(-c3ncc4ncn(Cc5ccc6ncccc6c5)c4n3)cn2)CC1 (stereo not given)
IC50 [13]: 10.4 µM
IC50 (MKN-45 [14]): 125 µM

SMILES: O=C(CSc1nc(=O)c(/C=C/c2ccco2)n[nH]1)N/N=C/c1cccs1
IC50 (MKN-45 [15]): 60 nM
IC50 (A549 [16]): 20 nM
IC50 [17]: 4.31 µM
IC50 (HT-29 [18]): 30 nM

SMILES: COc1ccc2c(OCc3nnc4ncc(-c5ccccc5)nn34)ccnc2c1
IC50 (EBC-1 [21]): 12 nM
IC50 (MKN-45 [7]): 21 nM

SMILES: Fc1ccc(Cl)c(Sc2n[nH]c3ncc(-c4cnn(C5CCNCC5)c4)cc23)c1Cl
IC50 (MKN-45 [23]): 329 nM
IC50 (EBC-1 [24]): 479 nM

SMILES: CC(C)=C1C/C=C(\C)CC/C=C(\C)CC1OS(=O)(=O)c1ccc(C)cc1 (stereo not given)
IC50 (Bel-7402): 71.8 µM
inhibition [25]: 56%
IC50 (HeLa): 88.6 µM
IC50 (A549 [11]): 84.5 µM
IC50 (HepG2 [12]): 56.2 µM

SMILES: Clc1ccc(-c2cn3cccc(COc4nnc5ccc(Cl)nn45)c3n2)c(Cl)c1
IC50 (BaF3 [26]): 253 nM
IC50 [27]: 53.4 nM

SMILES: COC(=O)c1ccc(N2NC(=O)/C(=C/c3ccc(-c4ccc(Cl)c(C(=O)O)c4)o3)C2=O)cc1
IC50 [9]: 9.5 µM

SMILES: c1cnc2ccc(Cn3nnc4ncc(-c5ccc6[nH]c7c(c6c5)CNCC7)nc43)cc2c1
IC50 [29]: 14.5 nM

SMILES: Cn1cc(-c2ccc(=O)n(C[C@@H]3CN(c4ncc(OCC5CCNCC5)cn4)CCO3)n2)cn1
IC50 (Hs746T): 3.17 µM
IC50 [30]: 19 nM

SMILES: CNC(=O)c1ccc(-c2ccc3ncc(S(=O)(=O)n4ccc5cnccc54)n3c2)cc1F
IC50 (MKN-45 [10]): 9.9 nM
IC50 (EBC-1 [31]): 19.8 nM

Now from value to molecule, other results behind:

IC50 (MKN-45 [7]): 450 nM
SMILES: COc1cc2c(Oc3ccc(NC(=O)/C=C/S(=O)(=O)c4ccccc4)cc3F)ccnc2cc1OCCCN1CCN(C)CC1

IC50 (MKN-45 [10]): 570 nM
SMILES: COc1cc2nccc(Oc3ccc(NC(=O)C4(Cl)CCCN(c5ccc(F)cc5)C4=O)cc3F)c2cc1OC (stereo not given)

IC50 (BaF3 [19]): 130 nM
SMILES: Cc1c(C(=O)Nc2ccc(Oc3ccnc(-c4nncn4CCCN4CCN(C)CC4)c3)c(F)c2)c(=O)n(-c2ccccc2)n1C
IC50 (HUVEC): 300 nM

IC50 (HepG2 [20]): 1700 nM
SMILES: CC(C)(C)OC(=O)N1CCc2c(sc3ncnc(Oc4ccc(NC(=O)C5(C(=O)Nc6ccc(F)cc6)CC5)cc4F)c23)C1

IC50 (MKN-45 [7]): 30 nM
IC50 [22]: 2.2 nM
SMILES: COc1cc2c(Oc3ccc(N/C=C4\C(=O)N(c5ccccc5C(F)(F)F)N=C4C)cc3F)ccnc2cc1OCCCN1CCOCC1

IC50 (MKN-45 [7]): 60 nM
IC50 [22]: 17.6 nM
SMILES: COc1cc2c(Oc3ccc(NC(=O)Nc4nc5c(C)ccc(C)c5s4)cc3F)ccnc2cc1OCCCN1CCN(C)CC1

IC50 (MKN-45 [7]): 10 nM
IC50 [22]: 1.35 nM
SMILES: COc1cc2c(Oc3ccc(NC(=O)c4cn(-c5ccccc5C(F)(F)F)c5ccccc5c4=O)cc3F)ccnc2cc1OCCCN1CCCCC1

IC50 (HT-29 [28]): 40 nM
IC50 (MKN-45 [7]): 390 nM
SMILES: COc1cc2c(Oc3ccc(N/C=C(\C#N)C(=O)Nc4ccc(C)cc4)cc3F)ccnc2cc1OCCCN1CCN(C)CC1
